Reference: patent US20230159445A1, “STAT INHIBITORY COMPOUNDS AND COMPOSITIONS” (JANPIX LIMITED, priority 2020, published 2023)

Columns and labels:
[1] = system: normal human fibroblast (NHF) cells; assay: NHF Cell Cytotoxicity Assay (CellTiter-Blue, 72 h), off-target effects; format: cell-based; settings: Homo sapiens, Fibroblast; pooled NHF cells
Protocol: In some embodiments, the off-target effects of the compounds are evaluated in healthy human cells, such as in a normal human fibroblast (NHF) cell cytotoxicity assay.
Cell viability was examined following treatment at various concentrations of inhibitor (0.097656-50 μM) using a cell Titer-Blue cell viability assay. 1×10^4 normal human fibroblast cells per well were plated in 96-well assay plates in culture medium. All cells are grown in DMEM, IMDM and RPMI-1640 were supplemented with 10% FBS. After 24 hours, test compounds and vehicle controls are added to appropriate wells so the final volume was 100 μl in each well. The cells are cultured for the desired test exposure period (72 hours) at 37° C. and 5% CO2. The assay plates are removed from 37° C. incubator and 20 μL/well of CellTiter-Blue® Reagent is added. The plates are incubated using standard cell culture conditions for 1-4 hours and the plates are shaken for 10 seconds and record fluorescence at 560/590nm. For each sample well, value is normalized between the DMSO control and the highest concentration in case of plateau, and converted into a percentage. In the absence of plateau, minimum lecture is obtained from a different sample within the same experiment. For each concentration, the four replicates are averaged and standard deviation calculated. Data is fitted to a log(inhibitor) vs response curve with variable slope model using Microsoft Excel, obtaining IC50 and Hill slope variables.
A person skilled in the art would appreciate that a higher IC50 value in this NHF assay can indicate lower off-target effects.

glutathione (GSH) = assay: Reactivity Profiling with Glutathione (GSH), half-life by HPLC; settings: 5 mM glutathione (GSH) in IMDM with 10% FBS
Protocol: 3.5 μL of 5 mM stocking solution of the inhibitors in DMSO was added to 697.5 μL of Iscove's Modified Dulbecco's Medium (IMDM) supplemented with 10% FBS and antibiotic antimycotic solution, with 5 mM glutathione to afford a final concentration of 25 μM inhibitor with 0.5% DMSO. The solution was then immediately placed in the sample tray at 25° C. […] For each inhibitor, its peak is integrated at different time points and compared to the time zero injection in order to obtain a percentage remaining. Half-life is calculated according to a first order reaction kinetic taking into account those time points for which remaining percentage of inhibitor is above 40%, using the formula: t½=Ln(2)/k, where k is the slope of the linear plot of Ln[Inhibitor] vs time, according to the formula: Ln[A]=Ln[A]0−kt, where [A] is the value resulting from the integration at each time point, [A]0 the value at time zero, and t the time. For each inhibitor, both replicates are averaged and the resulting t½ reported.

MV4-11 cells = assay: MV4-11 Cell Cytotoxicity Assay (CellTiter-Blue, 72 h); format: cell-based, human; settings: Homo sapiens, MV4-11; MV-4-11 cells
Outline: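 Viability read-out: CellTiter-Blue, 1 h, fluorescence 560/590 nm. Preceded by 72 h exposure (37° C, 5% CO2) to twofold dilution series from 50 μM, triplicate, 0.5% DMSO vehicle, applied 24 h after plating.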

half-life at 25 μM (glutathione (GSH))	SMILES	IC50 [1]	IC50 (MV4-11 cells)
0.00167 to 2.37 h	Cc1cc(C(=O)O)ccc1N(Cc1cc(C2CC2)cc(C2CC2)c1)C(=O)CN(Cc1c(F)cc(F)cc1F)S(=O)(=O)c1c(F)c(F)c(F)c(F)c1F [Compound 1218, 4-(N-(3,5-dicyclopropylbenzyl)-2-(N-(2,4,6-trifluorobenzyl)-(2,3,4,5,6-pentafluoro-phenyl)sulfonamido)acetamido)-3-methylbenzoic acid]	1 to 10000 nM	0.01 to 316 nM
0.00167 to 2.37 h	Cc1cc(C(=O)O)ccc1N(Cc1cc(C2CC2)cc(C(C)(C)C)c1)C(=O)CN(Cc1cnccc1C(F)(F)F)S(=O)(=O)c1c(F)c(F)c(F)c(F)c1F [Compound 1251, 4-(N-(3-(tert-butyl)-5-cyclopropylbenzyl)-2-(N-((4-(trifluoromethyl)pyridin-3-yl)methyl)-(2,3,4,5,6-pentafluoro-phenyl)sulfonamido)acetamido)-3-methylbenzoic acid]	1 to 10000 nM	0.01 to 316 nM
2.37 to 4.12 h	COc1cc(C(=O)O)ccc1N(Cc1cc(C2CC2)cc(C(C)(C)C)c1)C(=O)CN(Cc1c(F)cccc1F)S(=O)(=O)c1c(F)c(F)c(F)c(F)c1F [Compound 1145, 4-(N-(3-(tert-butyl)-5-cyclopropylbenzyl)-2-(N-(2,6-difluorobenzyl)-(2,3,4,5,6-pentafluorophenyl)sulfon-amido)acetamido)-3-methoxybenzoic acid]	1 to 10000 nM	0.01 to 316 nM
2.37 to 4.12 h	COc1cc(C(=O)O)ccc1N(Cc1cc(C2CC2)cc(C2CC2)c1)C(=O)CN(Cc1ccc(F)cc1Cl)S(=O)(=O)c1c(F)c(F)c(F)c(F)c1F [Compound 1166, 4-(2-(N-(2-chloro-4-fluorobenzyl)-(2,3,4,5,6-pentafluorophenyl)sulfon-amido)-N-(3,5-dicyclopropylbenzyl)acetamido)-3-methoxybenzoic acid]	1 to 10000 nM	0.01 to 316 nM
4.12 to 9.23 h	Cc1cc(C(=O)O)ccc1N(Cc1cc(C2CC2)cc(C2CC2)c1)C(=O)CN(Cc1ccccc1C(F)(F)F)S(=O)(=O)c1c(F)c(F)c(F)c(F)c1F [Compound 1217, 4-(N-(3,5-dicyclopropylbenzyl)-2-(N-(2-(trifluoromethyl)benzyl)-(2,3,4,5,6-pentafluoro-phenyl)sulfonamido)acetamido)-3-methylbenzoic acid]	20000 to 30000 nM	0.01 to 316 nM
2.37 to 4.12 h	COc1cc(C(=O)O)ccc1N(Cc1cc(C2CC2)cc(C2CC2)c1)C(=O)CN(Cc1c(F)cc(F)cc1F)S(=O)(=O)c1c(F)c(F)c(F)c(F)c1F [Compound 1148, 4-(N-(3,5-dicyclopropylbenzyl)-2-(N-(2,4,6-trifluorobenzyl)-(2,3,4,5,6-pentafluoro-phenyl)sulfonamido)acetamido)-3-methoxybenzoic acid]	1 to 10000 nM	0.01 to 316 nM
0.00167 to 2.37 h	COc1cc(C(=O)O)ccc1N(Cc1cc(C2CC2)cc(C(C)(C)C)c1)C(=O)CN(Cc1ccccc1C#N)S(=O)(=O)c1c(F)c(F)c(F)c(F)c1F [Compound 1075, 4-(N-(3-(tert-butyl)-5-cyclopropylbenzyl)-2-(N-(2-cyanobenzyl)-(2,3,4,5,6-pentafluorophenyl)sulfon-amido)acetamido)-3-methoxybenzoic acid]	10000 to 20000 nM	0.01 to 316 nM
0.00167 to 2.37 h	CCOc1cc(C(=O)O)ccc1N(Cc1cc(C2CC2)cc(C2CC2)c1)C(=O)CN(Cc1ccccc1C#N)S(=O)(=O)c1c(F)c(F)c(F)c(F)c1F [Compound 1273, 4-(2-((N-(2-cyanobenzyl)-2,3,4,5,6-pentafluorophenyl)sulfonamido)-N-(3,5-dicyclopropylbenzyl)acetamido)-3-ethoxybenzoic acid]	10000 to 20000 nM	0.01 to 316 nM
4.12 to 9.23 h	CC(C)(C)c1cc(CN(C(=O)CN(Cc2ccccc2F)S(=O)(=O)c2c(F)c(F)c(F)c(F)c2F)c2ccc(C(=O)O)cc2C2CC2)cc(C2CC2)c1 [Compound 1091, 4-(N-(3-(tert-butyl)-5-cyclopropylbenzyl)-2-(N-(2-fluorobenzyl)-(2,3,4,5,6-pentafluoro-phenyl)sulfonamido)acetamido)-3-cyclopropylbenzoic acid]	1 to 10000 nM	0.01 to 316 nM
9.23 to 1670 h	CC(C)(C)c1cc(CN(C(=O)CN(Cc2c(F)c(F)c(F)c(F)c2F)S(=O)(=O)c2c(F)c(F)c(F)c(F)c2F)c2ccc(C(=O)O)cc2OC2CC2)cc(C2CC2)c1 [Compound 1108, 4-(N-(3-(tert-butyl)-5-cyclopropylbenzyl)-2-(N-((perfluorophenyl)methyl)-(2,3,4,5,6-pentafluorophenyl)sulfonamido)acetamido)-3-cyclopropoxybenzoic acid]	1 to 10000 nM	0.01 to 316 nM
0.00167 to 2.37 h	O=C(O)c1ccc(N(Cc2cc(C3CC3)cc(C3CC3)c2)C(=O)CN(Cc2cnccc2C(F)(F)F)S(=O)(=O)c2c(F)c(F)c(F)c(F)c2F)c(C2CC2)c1 [Compound 1194, 3-cyclopropyl-4-(N-(3,5-dicyclopropylbenzyl)-2-(N-((4-(trifluoromethyl)pyridin-3-yl)methyl)-(2,3,4,5,6-pentafluoro-phenyl)sulfonamido)acetamido)benzoic acid]	1 to 10000 nM	0.01 to 316 nM
2.37 to 4.12 h	O=C(O)c1ccc(N(Cc2cc(C3CC3)cc(N3CCCC3)c2)C(=O)CN(Cc2cnccc2C(F)(F)F)S(=O)(=O)c2c(F)c(F)c(F)c(F)c2F)c(OC2CC2)c1 [Compound 1190, 3-cyclopropoxy-4-(N-(3-cyclopropyl-5-(pyrrolidin-1-yl)benzyl)-2-(N-((4-(trifluoromethyl)pyridin-3-yl)methyl)-(2,3,4,5,6-pentafluoro-phenyl)sulfonamido)acetamido)benzoic acid]	1 to 10000 nM	
2.37 to 4.12 h	O=C(O)c1ccc(N(Cc2cc(C3CC3)cc(C3CC3)c2)C(=O)CN(Cc2ccc(F)cc2Cl)S(=O)(=O)c2c(F)c(F)c(F)c(F)c2F)c(OC2CCOCC2)c1 [Compound 1230, 4-(2-(N-(2-chloro-4-fluorobenzyl)-(2,3,4,5,6-pentafluorophenyl)sulfon-amido)-N-(3,5-dicyclopropylbenzyl)acetamido)-3-((tetrahydro-2H-pyran-4-yl)oxy)benzoic acid]	1 to 10000 nM	
0.00167 to 2.37 h	O=C(O)c1ccc(N(Cc2cc(C3CC3)cc(C3CC3)c2)C(=O)CN(Cc2ccc(F)cc2Cl)S(=O)(=O)c2c(F)c(F)c(F)c(F)c2F)c(OCC2COC2)c1 [Compound 1257, 4-(2-(N-(2-chloro-4-fluorobenzyl)-(2,3,4,5,6-pentafluorophenyl)sulfon-amido)-N-(3,5-dicyclopropylbenzyl)acetamido)-3-(oxetan-3-ylmethoxy)benzoic acid]	10000 to 20000 nM	
4.12 to 9.23 h	O=C(O)c1ccc(N(Cc2cc(C3CC3)cc(C3CC3)c2)C(=O)CN(Cc2ccc(F)cc2C(F)(F)F)S(=O)(=O)c2c(F)c(F)c(F)c(F)c2F)c(OC2CC2)c1 [Compound 1223, 3-cyclopropoxy-4-(N-(3,5-dicyclopropylbenzyl)-2-(N-(4-fluoro-2-(trifluoromethyl)benzyl)-(2,3,4,5,6-pentafluoro-phenyl)sulfonamido)acetamido)benzoic acid]	20000 to 30000 nM	
2.37 to 4.12 h	CC(C)(C)c1cc(CN(C(=O)CN(Cc2ccc(F)cc2Cl)S(=O)(=O)c2c(F)c(F)c(F)c(F)c2F)c2ccc(C(=O)O)cc2O[C@H]2CCOC2)cc(C2CC2)c1 [Compound 1248, (S)-4-(N-(3-(tert-butyl)-5-cyclopropylbenzyl)-2-(N-(2-chloro-4-fluorobenzyl)-(2,3,4,5,6-pentafluorophenyl)sulfon-amido)acetamido)-3-((tetrahydrofuran-3-yl)oxy)benzoic acid]	1 to 10000 nM	
2.37 to 4.12 h	COCCOc1cc(C(=O)O)ccc1N(Cc1cc(C2CC2)cc(C2CC2)c1)C(=O)CN(Cc1ccc(F)cc1Cl)S(=O)(=O)c1c(F)c(F)c(F)c(F)c1F [Compound 1245, 4-(2-(N-(2-chloro-4-fluorobenzyl)-(2,3,4,5,6-pentafluorophenyl)sulfon-amido)-N-(3,5-dicyclopropylbenzyl)acetamido)-3-(2-methoxyethoxy)benzoic acid]	1 to 10000 nM	
2.37 to 4.12 h	CC(C)(C)c1cc(CN(C(=O)CN(Cc2ccc(F)cc2Cl)S(=O)(=O)c2c(F)c(F)c(F)c(F)c2F)c2ccc(C(=O)O)cc2O[C@@H]2CCOC2)cc(C2CC2)c1 [Compound 1249, (R)-4-(N-(3-(tert-butyl)-5-cyclopropylbenzyl)-2-(N-(2-chloro-4-fluorobenzyl)-(2,3,4,5,6-pentafluorophenyl)sulfon-amido)acetamido)-3-((tetrahydrofuran-3-yl)oxy)benzoic acid]	10000 to 20000 nM	
